“Also recorded” adds a separate entry of the source. Counter-ions that a name gives are not always drawn.

The text below walks through data of patent US9233067B2, “Silk particles for controlled and sustained delivery of compounds” (Amsilk GmbH, priority 2009, dated 2016).

The nature of data set [1]: Particle size of lysozyme loaded C16 spider silk particles (dynamic light scattering). In kind it is physicochemical. To be noted: particles loaded with approximately 10% [w/w] lysozyme. How it is done: The loading procedure as applied in example 6 was modulated and implemented as follows: A stock dispersion of spider silk particles was centrifuged and redispersed in the desired buffer media before loading. A second stock solution comprising lysozyme was prepared by dissolving lyophilized lysozyme in an identical buffer solution. […] After 30 minutes of incubation at room temperature under gentle agitation, 20 μl of the resulting particle suspension were used for dynamic light scattering measurements. Simultaneously, samples were centrifuged and the supernatant was analyzed for residual protein content using the Micro BCA Protein Assay Kit (Thermo Scientific). Encapsulation efficiencies and loading were determined according to example 6 by using equation (1) and (2), respectively.

For data set [2] the following is noted: pH of 7.0; cited from earlier work.
A short description of a further data set: Zeta potential analysis. It counts as physicochemical. The conditions noted are these: lysozyme loading up to 30%; pH 7.0/30 mM. How it is done:
In order to elucidate and characterize the loading mechanism of eADF4(C16) particles with model drugs, zeta potential measurements were conducted as a function of amount of model drug added. The zeta potential was determined using a Nanoseries Malvern Zetasizer (Malvern, Worcestershire, UK). Automatic titration was conducted with a Malvern Multipurpose Titrator MPT-2. Experiments were performed in distilled water (pH 7) at 25° C. Each measurement was performed in triplicate.

For data set [3] the following is noted: cited from earlier work; for log P: octanol/water, individual unprotonated forms; for Dissociation constant of BH^+(pKa): protonated base.
Data set [4] can be described thus: Properties of small molecular weight model drugs (Table 1). It counts as physicochemical. To be noted: for Predominant charge at pH7: pH 7, aqueous media. How it is done: All drugs were dissolved in water at a concentration of 0.21 μmol/ml. Drug substances and their featured properties are depicted in Table 1. The main selection criteria were solubility in aqueous media (expressed by the octanol/water partition coefficient (log P)), the acidic dissociation constant (pKa for protonated bases (BH+) or for acids (HA)) and the resulting net-charge in aqueous media (predominant or permanent charge).

A short description of data set [5]: In vitro release from drug loaded eADF4(C16) particles. It counts as physicochemical. The conditions noted are these: power law fit. On the procedure:
Drug loaded eADF4(C16) particles were washed with distilled water and suspended in 1 ml PBS (pH 7.4) before incubation at 37° C. with constant shaking. Each vial contained 2 mg of drug loaded particles containing […] spider silk protein. The solvent was periodically removed from each sample and replaced with fresh PBS (pH 7.4). The drug content in the medium was then analyzed using UV-Vis-spectrometry. The percentage of cumulative model drug release (% w/w) was investigated as a function of incubation time. Each experiment was performed in triplicate. To study the effect of different pH values on the release behaviour of drug loaded eADF4(C16) particles, 1 mg drug loaded silk particles were incubated in 1.0 ml PBS at 5 different pH values (pH 2, 4, 6, 7.4 and 8.8) for 5 days. The solvent was withdrawn daily and the particles were redispersed in fresh media. Supernatants of drawn samples were analyzed for drug content determination with UV-Vis-spectrometry.
[formula] where Mt/M∞ is the fractional amount of the drug released at time t, k is a characteristic constant of the system, and exponent n is related to the geometrical shape of the formulation and is indicative of the mechanism of drug release. The semi-empirical power law can be seen as a generalization of two independent mechanisms of drug transport, Fickian diffusion and Case II transport, reflecting the influence of polymer relaxation on molecules' movement in the matrix. For spherical systems the limiting value of n, when pure Fickian diffusion or pure Case II transport is operating, were determined to be equal to 0.43 and 0.85, respectively. When n is between 0.43 and 0.85, a superposition of both transport processes occurs which is known as anomalous transport. In order to obtain a linear fit for the drug release data, equation (5) was modified leading to equation (6),
[formula] where n can be calculated from the slope of the log-log plot of release Mt/M∞ versus time t by linear fitting (FIG. 4d). Therefrom, three time intervals with different dominating release mechanisms could be identified excluding the initial burst region (<24 h). To distinguish between different time intervals, the criterion that the coefficient r2 had to be above 0.99 for the individual linear fits was employed. For validation of the determined release parameters, the experimental release data were compared with theoretical data obtained by the semi-empirical power law employing the determined values for k and n. A very good agreement from post-initial burst stage (>24 hours) up to 100% release was obtained (FIG. 4 a). Since only release data after 24 hours were considered for calculation of release parameters (k and n), the initial burst is underestimated by theoretical data (FIG. 4 b).

Data set [6] in a line: Calculated apparent distribution coefficient (log D). To be noted: pH 7; calculated from log P and pKa. The source says:
Further, the distribution between a hydrophobic and a hydrophilic phase of two different species of a specific drug, i.e. the native and the protonated form, can be described by its apparent distribution coefficient (log D), which can be calculated with equations (3) and (4) respectively. for acids: log D=log P−log(1+10^pH-pKa) (3) for bases: log D=log P−log(1+10^pKa-pH) (4)

On to “Lysozyme: protein compound with an isoelectric point of 11.35 and a molecular weight of 14.3 kDa”, for which, in data set [1], the “particle size compared to unloaded spider silk particles” value is reported as “no increase in size; also recorded: did not differ”. For the same compound, in data set [2], the net charge entry was “positive”. In addition, the “change in the zeta-potential of particles” value in the data set “Zeta potential analysis” is recorded as “did not show a significant change”.

In the case of `O=S1(=O)OC(c2ccc(O)cc2)(c2ccc(O)cc2)c2ccccc21` [Phenol red], in data set [3], the log P (in general, a log measure of how a compound divides between an organic and an aqueous phase) is on record as 3.00.

Regarding Methyl violet, the Permanently charged result in data set [4] is recorded as “yes”. Besides, the “Predominant charge at pH7” value in data set [4] is recorded as “positive”. The “k (characteristic constant)” value is recorded as 1.17 in data set [5] (time 0-13 d), 1.92 in data set [5] (time 14-20 d) and 9.20 in data set [5] (time >20 d). Also, the “n (release exponent)” value in data set [5] (time 0-13 d) came out at 0.692; in data set [5] (time 14-20 d), 0.6079; in data set [5] (time 14-20 d, listed as methyl violet), 0.61; in data set [5] (time >20 d) it was 0.3537. For the same compound, the “log P” value in data set [3] is 3.20.

Regarding `CCCCNc1ccc(C(=O)OCCN(C)C)cc1` [Tetracaine*HCl, Tetracaine], in data set [4], the Permanently charged entry was “no” and the “Predominant charge at pH7” value is reported as “positive”. In addition, the log D (as a rule, the decadic logarithm of the distribution of all forms, ionised or not, between an organic phase and buffer at a given pH) in data set [6] was 2.773. Moreover, the “log P” value in data set [3] is on record as 4.00.

As for `CCOc1ccc2nc3cc(N)ccc3c(N)c2c1` [Ethacridine lactate], the Permanently charged result in data set [4] is “no”. In data set [4], the “Predominant charge at pH7” value is “positive”. Besides, the “k (characteristic constant)” value in data set [5] (time 0-13 d) came to 1.25; in data set [5] (time 14-20 d), 3.18; in data set [5] (time >20 d) it was 14.4. Moreover, the “n (release exponent)” value in data set [5] (time 0-13 d) came out at 00.6754; in data set [5] (time 0-13 d, listed as ethacridine lactate), 0.6754; in data set [5] (time 14-20 d), 0.5083; in data set [5] (time 14-20 d, listed as ethacridine lactate), 0.51; in data set [5] (time >20 d) it was 0.2641. In data set [6], the “log D” value is 2.899. Moreover, the “log P” value in data set [3] is 2.50. Besides, the “Dissociation constant of BH^+(pKa)” value in data set [3] was 11.00.

As to “Nerve growth factor: protein with an isoelectric point of 9.5 and a molecular weight of 13 kDa”, the net charge result in data set [2] is reported as “positively charged”.

Take `CC(C)NCC(O)COc1cccc2ccccc12` (stereo not drawn) [Propranolol*HCl, Propranolol]: in data set [4], the Permanently charged entry is “no” and the “Predominant charge at pH7” value was “positive”.

Take `CN[C@@H](C)[C@H](O)c1ccccc1` [Ephedrine*HCl, Ephedrine]: in data set [4], the Permanently charged entry is recorded as “no” and the “Predominant charge at pH7” value is “positive”. Besides, the “log D” value in data set [6] is recorded as −1.321. For the same compound, the “log P” value in data set [3] is 1.30.

As for `COc1ccc(Cc2nccc3cc(OC)c(OC)cc23)cc1OC` [Papaverine*HCl, Papaverine], in data set [4], the Permanently charged entry is “no” and the “Predominant charge at pH7” value is listed as “positive”. The “log D” value in data set [6] is reported as 2.395. Moreover, in data set [3], the “log P” value is reported as 3.50 and the “Dissociation constant of BH^+(pKa)” value is 8.07.

For `CCN(CC)CCOC(=O)c1ccc(N)cc1` [Procaine*HCl, Procaine], in data set [4], the Permanently charged entry is listed as “no” and the “Predominant charge at pH7” value is given as “positive”. In data set [6], the log distribution coefficient (log D) is given as 0.396. Besides, in data set [3], the “log P” value is listed as 2.40 and the “Dissociation constant of BH^+(pKa)” value is given as 8.05.
